Laboratory results reported in patent US9187544B2, “Peptide modulators of angiogenesis and use thereof” (The Johns Hopkins University, priority 2007, dated 2015).

System: NCI H82 lung carcinoma cell line tumor xenografts
Assay: In vivo tumor xenograft model
Conditions: female nude mice, 12 days, monotherapy
Description: To characterize the functional effects of anti-angiogenic peptides in mouse models, tumor xenografts were generated in female nude mice using the NCI H82 lung carcinoma cell line. This cell line was chosen because its aggressiveness results in rapid tumor growth. Three peptides, a collagen derived, a CXC chemokine derived and a TSP1 containing protein derived peptide were administered once a day, intraperitoneally (i.p.), at doses 10 and 20 mg/kg/day, in a 200 microliter solution injection as individual agents and as a combination. The CXC protein GRO-α/CXCL1 derived peptide (human sequence: […] (SEQ ID NO: 2445); mouse sequence: […] (SEQ ID NO: 2441)), the TSP1 repeat-containing protein WISP-1 derived peptide (human sequence: GPWEPCSVTCSKGTRTRRR (SEQ ID NO: 2444); mouse sequence: GPWGPCSVTCSKGTQIRQR (SEQ ID NO: 2440)), and the type IV collagen alpha5 fibril derived peptide (human sequence: […] (SEQ ID NO: 2442) is the same as mouse sequence: […] (SEQ ID NO: 2443)). An equivalent volume of PBS was injected as control. The injections were repeated for 12 days.
A population of 10^6 cells were washed twice in PBS and gently resuspended to generate a single cell suspension. The cells were mixed with Matrigel (BD Biosciences) in a final 60% cell solution. Subsequently, the cells were injected into the flank area of immunosuppressed nude mice in a total volume of 100 μl. Following growth incubation of 5 to 6 days, the tumor size volume was calculated by measurements of tumor dimensions with calipers. Tumor growth was monitored to an initial average size of 100 mm^3, which developed within 6 days after inoculation. Peptides were administered once a day, intraperitoneally (i.p.), in doses of 10 mg/kg and 20 mg/kg. In the case of testing a combination each peptide was injected in a two day cycle of a different peptide per day. Equivalent volume of PBS solution was injected as control. The injections were continued for up to […]. A total of six animals per group were used for the experiments per peptide per concentration.

Row | Sequence | development of tumors (tumor volume) (10 mg/kg/day i.p. once a day) | development of tumors (tumor volume) (20 mg/kg/day i.p. once a day)
1 | GPWEPCSVTCSKGTRTRRR | suppressed the development of tumors | suppressed the development of tumors
2 | LRRFSTMPFMFCNINNVCNF | suppressed the development of tumors | suppressed the development of tumors
3 | NGRKACLNPASPIVKKIIEKMLNS [CXC protein GRO-α/CXCL1 derived peptide] | suppressed the development of tumors | suppressed the development of tumors
